In patent publication US9840498B2, “Substituted quinazolin-4-one derivatives” (NOVARTIS AG, priority 2013, dated 2017):

Target: PI 3-Kinase Gamma (Homo sapiens (Human), UniProt P48736)
Assay: Cellular U937 AKT assay for PI 3-kinase gamma
Assay type: cell-based
Settings: U937 cells, MIP1α-stimulated AKT phosphorylation, read-out: Cell PI3K gamma IC50
Protocol: The U937 monocyte cell line is maintained in a basal medium of RPMI 1640 supplemented with 10% heat inactivated FCS, 100 U/ml Penicillin, 100 ug/ml streptomycin and 2 mM L-glutamine (Invitrogen). U937 suspension culture is maintained by seeding cells at a density of 0.125×10^6 cells per ml in fresh medium every three or four days. Cells are incubated at 37° C., 5% CO2. […] Before beginning the cell manipulations described below, the MSD (Meso Scale Discovery) assay plate is blocked by addition of 150 ul/well blocking buffer supplied and incubated with shaking for a minimum of one hour at room temperature. All steps of the assay must be performed quickly, with accurately timed incubation periods and observing temperature controls where indicated. […] Falcon tube, counted and centrifuged for eight minutes at 300 g at room temperature. Supernatant is aspirated, the cell pellet resuspended and washed once in HBSS (Hank's Balanced Salt Solution) by centrifugation for eight minutes at 300 g at room temperature. The cell pellet is resuspended in HBSS to a concentration of 4×10^6 per ml, and 100 μL of cell suspension added to each well of a flat-bottomed 96-well tissue culture plate. Assay plates are incubated for 1.5 hours at 37° C., 5% CO2 to allow background AKT phosphorylation to reduce before the compound stimulation step. […] Compound concentrations at this stage are 4-times the final concentration required in the assay plate. Cells are stimulated with compound or HBSS 0.8% DMSO by direct transfer of 50 ul/well from the compound dilution plate. The assay plate containing compound-treated cells is then incubated for 30 minutes at 37° C. A standard plate layout is used for all experiments. Compound-treated cells, in addition to positive control wells (“max MIP1α”), are stimulated with 50 μL per well of 40 ng/ml MIP1α (R&D Systems catalogue number 270-LD, lyophilized stock reconstituted to 50 μg/ml with PBS 0.1% BSA). Negative control wells (“min HBSS”), are stimulated with 50 μl/well of HBSS in the absence of MIP1α. […] Cells are incubated with MIP1α for 3 minutes, at 37° C., 5% CO2. After the three minute stimulation period, the assay plate is kept ice cold at all times. Assay plates are centrifuged for 2 minutes at 300 g, 4° C. and supernatant is removed by gently inverting, and then blotting the plate on tissue. Cells are then washed by gentle addition of 150 μL/well of ice cold HBSS and centrifugation at 300 g, for 5 minutes at 4° C. Supernatant is aspirated and the plate blotted as described above. The plate is placed on ice and cells are immediately treated with 35 μL per well of ice cold lysis buffer, prepared according to the kit instructions (per assay plate, to 5 ml of Tris lysis buffer add 100 μl of 50× protease inhibitor solution and 50 μl of each 100× phosphatase inhibitor solutions I and II). Plates are incubated on ice for 20 minutes before centrifugation at 841 g for 5 minutes, 4° C. Block buffer is aspirated from the MSD plate, and the plate washed four times with 300 μl/well Tris wash buffer. 25 μL of cell lysate is then transferred from the assay plate to the washed MSD plate which is sealed and incubated at room temperature for one hour with shaking. The plate is washed four times with 300 μL per well of Tris wash buffer before addition of 25 μL per well of sulfo-tag anti-total AKT/pAKT detection antibody (60 μl of 50× antibody stock is diluted in 1 ml block buffer mixed with 2 ml wash buffer) and incubated at room temperature for one hour with shaking. The plate is washed four times with 300 μl per well of Tris wash buffer and 150 μl per well of Read buffer is added, taking care to avoid the introduction of bubbles. The plate is immediately read using an MSD SECTOR Imager 6000. Results are exported in Excel and the percentage of phosphorylated AKT is calculated using the equation: % Phosphoprotein=((2*Phospho signal)/(Phospho signal+Total signal))*100. […]

PI 3-Kinase Gamma, sequence (P48736 whole entry): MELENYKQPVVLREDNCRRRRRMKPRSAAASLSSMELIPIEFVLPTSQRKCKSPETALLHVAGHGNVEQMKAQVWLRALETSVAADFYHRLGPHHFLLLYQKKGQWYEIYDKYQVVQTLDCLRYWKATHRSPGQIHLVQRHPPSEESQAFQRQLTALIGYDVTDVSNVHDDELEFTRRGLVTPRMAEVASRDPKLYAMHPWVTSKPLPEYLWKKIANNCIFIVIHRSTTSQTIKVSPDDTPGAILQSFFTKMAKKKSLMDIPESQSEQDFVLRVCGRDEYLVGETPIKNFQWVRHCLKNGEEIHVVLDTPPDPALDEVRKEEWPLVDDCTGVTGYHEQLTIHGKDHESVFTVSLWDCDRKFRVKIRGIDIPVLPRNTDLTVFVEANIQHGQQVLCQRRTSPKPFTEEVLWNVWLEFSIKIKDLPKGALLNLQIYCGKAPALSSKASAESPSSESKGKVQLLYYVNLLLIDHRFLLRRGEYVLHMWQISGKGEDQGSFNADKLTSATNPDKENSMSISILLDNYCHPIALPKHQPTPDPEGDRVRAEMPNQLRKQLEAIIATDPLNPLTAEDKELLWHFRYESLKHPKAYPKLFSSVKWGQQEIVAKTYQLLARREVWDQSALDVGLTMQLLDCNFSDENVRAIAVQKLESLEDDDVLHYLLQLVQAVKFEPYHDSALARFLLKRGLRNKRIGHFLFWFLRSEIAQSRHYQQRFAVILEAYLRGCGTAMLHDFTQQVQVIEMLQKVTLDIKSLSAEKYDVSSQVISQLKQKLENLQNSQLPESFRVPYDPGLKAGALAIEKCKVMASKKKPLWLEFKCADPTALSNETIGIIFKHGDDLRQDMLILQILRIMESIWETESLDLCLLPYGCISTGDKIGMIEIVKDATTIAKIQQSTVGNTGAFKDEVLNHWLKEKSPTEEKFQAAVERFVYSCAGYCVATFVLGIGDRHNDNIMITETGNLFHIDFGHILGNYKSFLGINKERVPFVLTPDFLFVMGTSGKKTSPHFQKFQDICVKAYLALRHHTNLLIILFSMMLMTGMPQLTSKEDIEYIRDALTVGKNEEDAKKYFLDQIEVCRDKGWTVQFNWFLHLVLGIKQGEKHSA

| IC50 | Compound |
| --- | --- |
| 0.038 µM | CO[C@H]1C[C@@H](c2nc3cccc(-c4cnn(C)c4)c3c(=O)n2-c2ccccc2)N(c2nc(N)nc(C)c2C#N)C1 [Example 10, 2-Amino-4-((2S,4S)-4-methoxy-2-(5-(1-methyl-1H-pyrazol-4-yl)-4-oxo-3-phenyl-3,4-dihydroquinazolin-2-yl)pyrrolidin-1-yl)-6-methylpyrimidine-5-carbonitrile] |
| 0.34 µM | CO[C@H]1C[C@@H](c2nc3cccc(-c4cnn(C)c4)c3c(=O)n2-c2ccccc2)N(c2nc(N)nc3[nH]cnc23)C1 [Example 11, 2-((2S,4S)-1-(2-Amino-9H-purin-6-yl)-4-methoxypyrrolidin-2-yl)-5-(1-methyl-1H-pyrazol-4-yl)-3-phenylquinazolin-4(3H)-one] |
| 0.12 µM | COc1ncc(-c2cccc3nc([C@@H]4C[C@H](OC)CN4c4nc(N)nc(C)c4C#N)n(-c4ccccc4)c(=O)c23)cn1 [Example 12, 2-Amino-4-((2S,4S)-4-methoxy-2-(5-(2-methoxypyrimidin-5-yl)-4-oxo-3-phenyl-3,4-dihydroquinazolin-2-yl)pyrrolidin-1-yl)-6-methylpyrimidine-5-carbonitrile] |
| 0.21 µM | Cc1ccccc1-n1c([C@@H]2CCCN2c2ncnc(N)c2C#N)nc2cccc(-c3cnn(C)c3)c2c1=O [Example 14, (S)-4-Amino-6-(2-(5-(1-methyl-1H-pyrazol-4-yl)-4-oxo-3-(otolyl)-3,4-dihydroquinazolin-2-yl)pyrrolidin-1-yl)pyrimidine-5-carbonitrile] |
| > 10 µM | Cn1cnc(-c2cccc3nc([C@@H]4CCCN4c4ncnc(N)c4C#N)n(-c4ccccc4)c(=O)c23)c1 [Example 15, (S)-4-Amino-6-(2-(5-(1-methyl-1H-imidazol-4-yl)-4-oxo-3-phenyl-3,4-dihydroquinazolin-2-yl)pyrrolidin-1-yl)pyrimidine-5-carbonitrile] |
| 0.055 µM | Cc1nc(N)nc(N2C[C@@H](O)C[C@H]2c2nc3cccc(-c4cnn(C)c4)c3c(=O)n2-c2ccccc2)c1C#N [Example 16, 2-Amino-4-((2S,4S)-4-hydroxy-2-(5-(1-methyl-1H-pyrazol-4-yl)-4-oxo-3-phenyl-3,4-dihydroquinazolin-2-yl)pyrrolidin-1-yl)-6-methylpyrimidine-5-carbonitrile] |
| 0.29 µM | Cc1nc(N)nc(N2CCC[C@H]2c2nc3cccc(-c4cncnc4)c3c(=O)n2-c2ccccc2)c1C#N [Example 17, (S)-2-Amino-4-methyl-6-(2-(4-oxo-3-phenyl-5-(pyrimidin-5-yl)-3,4-dihydroquinazolin-2-yl)pyrrolidin-1-yl)pyrimidine-5-carbonitrile] |
| 0.016 µM | COc1cncc(-c2cccc3nc([C@@H]4CCCN4c4nc(N)nc(C)c4C#N)n(-c4ccccc4)c(=O)c23)c1 [Example 18, (S)-2-Amino-4-(2-(5-(5-methoxypyridin-3-yl)-4-oxo-3-phenyl-3,4-dihydroquinazolin-2-yl)pyrrolidin-1-yl)-6-methylpyrimidine-5-carbonitrile] |
| 0.22 µM | Cc1ncc(-c2cccc3nc([C@@H]4CCCN4c4nc(N)nc(C)c4C#N)n(-c4ccccc4)c(=O)c23)cn1 [Example 19, (S)-2-Amino-4-methyl-6-(2-(5-(2-methylpyrimidin-5-yl)-4-oxo-3-phenyl-3,4-dihydroquinazolin-2-yl)pyrrolidin-1-yl)pyrimidine-5-carbonitrile] |
| 0.27 µM | Cc1nc(N)nc(N2CCC[C@H]2c2nc3cccc(-c4cccnc4)c3c(=O)n2-c2ccccc2)c1C#N [Example 20, (S)-2-Amino-4-methyl-6-(2-(4-oxo-3-phenyl-5-(pyridin-3-yl)-3,4-dihydroquinazolin-2-yl)pyrrolidin-1-yl)pyrimidine-5-carbonitrile] |
| 1.1 µM | COc1ccc(-c2cccc3nc([C@@H]4CCCN4c4nc(N)nc(C)c4C#N)n(-c4ccccc4)c(=O)c23)cn1 [Example 21, (S)-2-Amino-4-(2-(5-(6-methoxypyridin-3-yl)-4-oxo-3-phenyl-3,4-dihydroquinazolin-2-yl)pyrrolidin-1-yl)-6-methylpyrimidine-5-carbonitrile] |
| 0.018 µM | COc1ncc(-c2cccc3nc([C@@H]4C[C@H](O)CN4c4nc(N)nc(C)c4C#N)n(-c4ccccc4)c(=O)c23)cn1 [Example 22, 2-Amino-4-((2S,4S)-4-hydroxy-2-(5-(2-methoxypyrimidin-5-yl)-4-oxo-3-phenyl-3,4-dihydroquinazolin-2-yl)pyrrolidin-1-yl)-6-methylpyrimidine-5-carbonitrile] |

Further lines, the compound ahead of its results:

| Compound | IC50 |
| --- | --- |
| Cc1nc(N)nc(N2C[C@@H](O)C[C@H]2c2nc3ccc(F)c(-c4cnn(C)c4)c3c(=O)n2-c2ccccc2)c1C#N [Example 1, 2-Amino-4-((2S,4S)-2-(6-fluoro-5-(1-methyl-1H-pyrazol-4-yl)-4-oxo-3-phenyl-3,4-dihydroquinazolin-2-yl)-4-hydroxypyrrolidin-1-yl)-6-methylpyrimidine-5-carbonitrile] | 0.032 µM |
| COc1ncc(-c2cccc3nc([C@@H]4CCCN4c4ncnc(N)c4C#N)n(-c4ccccc4)c(=O)c23)cn1 [Example 3, (S)-4-Amino-6-(2-(5-(2-methoxypyrimidin-5-yl)-4-oxo-3-phenyl-3,4-dihydroquinazolin-2-yl)pyrrolidin-1-yl)pyrimidine-5-carbonitrile] | 0.43 µM |
| COc1ncc(-c2cccc3nc([C@@H]4CCCN4c4nc(N)nc(C)c4C#N)n(-c4ccccc4)c(=O)c23)cn1 [Example 4, (S)-2-Amino-4-(2-(5-(2-methoxypyrimidin-5-yl)-4-oxo-3-phenyl-3,4-dihydroquinazolin-2-yl)pyrrolidin-1-yl)-6-methylpyrimidine-5-carbonitrile] | 0.04 µM |
| Cn1cc(-c2c(F)ccc3nc([C@@H]4CCCN4c4ncnc(N)c4C#N)n(-c4ccccc4)c(=O)c23)cn1 [Example 5, (S)-4-Amino-6-(2-(6-fluoro-5-(1-methyl-1H-pyrazol-4-yl)-4-oxo-3-phenyl-3,4-dihydroquinazolin-2-yl)pyrrolidin-1-yl)pyrimidine-5-carbonitrile] | 0.22 µM |
| Cc1nc(N)nc(N2CCC[C@H]2c2nc3ccc(F)c(-c4cnn(C)c4)c3c(=O)n2-c2ccccc2)c1C#N [Example 6, (S)-2-Amino-4-(2-(6-fluoro-5-(1-methyl-1H-pyrazol-4-yl)-4-oxo-3-phenyl-3,4-dihydroquinazolin-2-yl)pyrrolidin-1-yl)-6-methylpyrimidine-5-carbonitrile] | 0.041 µM |
| COc1ncc(-c2c(F)ccc3nc([C@@H]4C[C@H](O)CN4c4nc(N)nc(C)c4C#N)n(-c4ccccc4)c(=O)c23)cn1 [Example 7, 2-Amino-4-((2S,4S)-2-(6-fluoro-5-(2-methoxypyrimidin-5-yl)-4-oxo-3-phenyl-3,4-dihydroquinazolin-2-yl)-4-hydroxypyrrolidin-1-yl)-6-methylpyrimidine-5-carbonitrile] | 0.025 µM |
| Cn1cc(-c2c(F)ccc3nc([C@@H]4C[C@H](O)CN4c4ncnc(N)c4C#N)n(-c4ccccc4)c(=O)c23)cn1 [Example 8, 4-Amino-6-((2S,4S)-2-(6-fluoro-5-(1-methyl-1H-pyrazol-4-yl)-4-oxo-3-phenyl-3,4-dihydroquinazolin-2-yl)-4-hydroxypyrrolidin-1-yl) pyrimidine-5-carbonitrile] | 0.029 µM |
| COc1ncc(-c2c(F)ccc3nc([C@@H]4C[C@H](O)CN4c4nc(N)nc(C)c4C#N)n(-c4ccccc4)c(=O)c23)s1 [Example 9, 2-Amino-4-((2S,4S)-2-(6-fluoro-5-(2-methoxythiazol-5-yl)-4-oxo-3-phenyl-3,4-dihydroquinazolin-2-yl)-4-hydroxypyrrolidin-1-yl)-6-methylpyrimidine-5-carbonitrile] | 0.056 µM |
